From patent US7001900B2, “Azabicyclic compounds for the treatment of disease” (Pfizer Inc., priority 2002, dated 2006)

Biological target: T1, chimeric α7-5HT3 ion channel (UniProt P23979+P36544, M226I/T225I)
T1 construct: expressed in transfected cells
Assay: Cell-based FLIPR assay of agonist activity on the chimeric α7-5HT3 receptor (Calcium Green fluorescence, intracellular calcium)
Settings: SH-EP1 cells expressing chimeric α7-5HT3 ion channel
From the text: The cDNA encoding the N-terminal 201 amino acids from the human α7 nAChR that contain the ligand binding domain of the ion channel was fused to the cDNA encoding the pore forming region of the mouse 5HT3 receptor as described by Eisele J L, et al., Chimacric nicotinic-serotonergic receptor combines distinct ligand binding and channel specificities, Nature (1993), December 2;366(6454):479–83, and modified by Groppi, et al., WO 00/73431. The chimeric α7–5HT3 ion channel was inserted into pGS 175 and pGS 179 which contain the resistance genes for G-418 and hygromycin B, respectively. […]
To assay the activity of the α7–5HT3 ion channel, cells expressing the channel were plated into each well of either a 96 or 384 well dish (Corning #3614) and grown to confluence prior to assay. […] The activity of compounds on the chimeric α7–5HT3 ion channel was analyzed on FLIPR. […] Fluorescent emission was measured above 525 nanometers with an appropriate F-stop to maintain a maximal signal to noise ratio. Agonist activity of each compound was measured by directly adding the compound to cells expressing the chimeric α7-5HT3 ion channel and measuring the resulting increase in intracellular calcium that is caused by the agonist-induced activation of the chimeric ion channel. […]

T1 sequence (P36544+P23979 fused P36544:T225I/P36544:M226I): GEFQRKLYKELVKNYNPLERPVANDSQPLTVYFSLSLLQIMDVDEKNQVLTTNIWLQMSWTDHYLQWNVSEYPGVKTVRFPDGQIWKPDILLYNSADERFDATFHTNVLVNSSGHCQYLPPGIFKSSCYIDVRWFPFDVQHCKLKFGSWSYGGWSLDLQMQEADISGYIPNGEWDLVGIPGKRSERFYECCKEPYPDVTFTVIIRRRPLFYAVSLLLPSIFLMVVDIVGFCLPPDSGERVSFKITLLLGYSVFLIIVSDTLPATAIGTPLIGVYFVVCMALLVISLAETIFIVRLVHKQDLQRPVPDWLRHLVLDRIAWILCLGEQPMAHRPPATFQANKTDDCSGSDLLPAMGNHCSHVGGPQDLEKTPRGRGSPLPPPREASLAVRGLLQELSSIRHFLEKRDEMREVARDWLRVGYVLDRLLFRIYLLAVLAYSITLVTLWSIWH

Cl.O=C(N[C@H]1CN2CCC1CC2)c1ccc2cccc(O)c2n1 [Example 8, N-[(3R)-1-azabicyclo[2.2.2]oct-3-yl]-8-hydroxyquinoline-2-carboxamide hydrochloride]
EC50 (effective concentration needed to cause a 50% maximal increase in intracellular calcium): inactive
